The subject of experiment [1] is CD62E (E-selectin). Nature of the experiment: FACS of cell surface CD62E (E-selectin) in HUVEC. Format: cell-based, human. To be noted: 1 μM, 24 hours. As for the experimental part: Using HUVEC, changes in expression levels of E-selectin by the RUNX inhibitor and RUNX knockdown were analyzed by FACS (fluorescence-activated cell sorter). To HUVEC, 1 μM of Chb-M′ was administered. After 24 hours, different antibodies were used for immunostaining and changes in the cell surface expression of CD62E (E-selectin) were measured. As a control, DMSO was administered. In addition, HUVEC in which RUNX1 gene expression was knockdown by sh_RUNX1 #2 were immunostained using different antibodies to measure changes in the cell surface expression of CD62E (E-selectin). As a control, the cells were knockdown by a siRNA targeting luciferase (sh_Luc.). As the antibodies, an anti-human CD62E (E-selectin) antibody (manufactured by eBioscience) and an isotype antibody (mouse IgG1) of anti-human CD62E (E-selectin) antibody (manufactured by eBioscience) were used.

The test system of experiment [2] is BCR-ABL fusion protein. In words: Western blotting of BCR-ABL fusion protein in CML and PhALL cells. Format: cell-based, human. As to conditions: 3 μM or 1 μM, 24 hours. How it is done:
Cells were washed twice with ice cold phosphate-buffered saline (PBS) and harvested in protein lysis buffer [50 mM Tris (pH 7.4), 100 mM NaCl, 0.1 mM EDTA, 1 mM phenylmethylsulfonyl fluoride, 1 mM β-glycerophosphate, 2.5 mM sodium pyrophosphate, 1 mM Na3VO4, lx protease inhibitor (Roche) and PhosSTOP (Roche)]. Whole cell extracts were separated by SDS-polyacrylamide gel electrophoresis (SDS-PAGE) and electrotransferred onto polyvinylidene difluoride membranes. Membranes were probed with the following antibodies: anti-Ctip1 antibody (Abcam, ab19487), anti-TRIM24 antibody (Bethyl Laboratories, Inc), anti-RUNX1 antibody (A-2), anti-GAPDH (FL-335), anti-p21 (C-19), anti-Bax (N-20) antibodies (Santa Cruz Biotechnology, Inc.), anti-RUNX2, anti-RUNX3, anti-p53 antibodies (Cell Signaling Technology), anti-CBFβ antibody (FL-182, Santa Cruz Biotechnology, Inc.), anti-cleaved caspase-3 antibody (5A1E, Cell Signaling Technology), anti-PARP antibody (46D11, Cell Signaling Technology). For secondary antibodies, anti-rabbit IgG, or anti-mosue IgG HRP-linked antibodies (Cell Signaling Technology) were used. Blots were detected using Chemi-Lumi One Super (nacalai tesque, Inc.) and ChemiDoc™ XRS+ Imager (Bio-Rad Laboratories, Inc.), as recommended by the manufacturers. Protein levels were quantified with Image Lab Software (Bio-Rad Laboratories, Inc.).
To BV173 cells, MYL cells, SU-Ph2 cells, and SU/SR cells, 3 μM or 1 μM of Chb-M′ were administered. After 24 hours, proteins were extracted, and then subjected to the Western blotting method (see the above-described “Immunoblotting”) using an ABL antibody to confirm expressions of BCR-ABL fusion protein at protein levels. As a control, DMSO was administered.

Experiment [3] concerns c-kit. In words: FACS of cell surface c-kit, LAD2 mast cells. Format: cell-based, human. As to conditions: LAD2 (wild-type c-kit), 10 μM, 18-hour treatment; DMSO 68.3. The text has this: Mast cells cause symptoms or diseases such as allergic reaction by receptor-mediated activation. In addition, c-kit signal transduction enhances release of chemical mediators from stimulated mast cells. The effect of the RUNX inhibitor on human mast cells was examined. As human mast cells, a LAD2 cell line (expressing wild-type c-kit) and an HMC-1.2 cell line (expressing mutated c-kit) were used. The HMC-1.2 cell line has KIT D816V mutation and V560G mutation. Wild-type c-kit is a SCF receptor and the cell proliferation is dependent on SCF. Accordingly, regarding the LAD2 cell line, 50 ng/ml of SCF was administered and experiments were performed as described below. The HMC-1.2 cell line has a mutation in c-kit and the cell proliferation is independent of SCF. Accordingly, regarding the HMC-1.2 cell line, SCF was not administered and experiments were performed as described below. As the RUNX inhibitor, Chb-M′ was used. […]
To the LAD2 cell line, 10 μM Chb-M′ was administered. After 3 hours and 18 hours, different antibodies were used for immunostaining of c-kit expressed on the cell surface, and the expression levels were analyzed by FACS (fluorescence-activated cell sorter). […] After 18 hours, different antibodies were used for immunostaining of c-kit expressed on the cell surface, and the expression levels were analyzed by FACS. […]

Experiment [4] relates to SU/SR cells. In words: Xenograft ALL mouse model (SU/SR). Format: in vivo.
Experiment [5] has as its system MYL cells. In words: PI-AnnexinV apoptosis staining, MYL cells. Format: cell-based, human. As to conditions: 1.5 μM or 3 μM, 48 hours, dependent on concentration. How it is done:
In addition, 1.5 μM or 3 μM of Chb-M′ was administered to MYL cells. After 48 hours, the percentage of apoptosis was analyzed by PI-AnnexinV apoptosis staining. As a result, early apoptosis rates were increased dependent on the concentration of Chb-M′ (FIG. 26-4).

The test system of experiment [6] is RUNX family (RUNX1, RUNX2 and RUNX3). In words: Gene expression microarray in MV4-11 cells vs RUNX family knockdown. As to conditions: 1 μM, 6 hours, top 500 up- and down-regulated genes. Format: cell-based, human.
Experiment [7] deals with UF1 (p53Null).

The structures appear in SMILES notation. Read-outs that look alike come from different tables or passages of the source.

As a reminder, the IC50 is the concentration that inhibits the measured activity by half. Read a low IC50 as greater potency. Consider `CN(C)CCCNC(=O)c1cc(NC(=O)c2cc(NC(=O)c3cc(NC(=O)c4cc(NC(=O)CCCNC(=O)c5nc(NC(=O)c6nc(NC(=O)c7cc(NC(=O)c8nc(NC(=O)CCNC(=O)CCCc9ccc(N(CCCl)CCCl)cc9)cn8C)cn7C)cn6C)cn5C)cn4C)cn3C)cn2C)cn1C` [Chb-M′], for which the “Cell surface expression of E-selectin (FACS)” value in experiment [1] is “decrease”. Moreover, the p210BCR-ABL fusion protein result in experiment [2] (BV173 cells) and in experiment [2] (MYL cells) was “lost” each time. In addition, the p190BCR-ABL fusion protein entry in experiment [2] (SU-Ph2 cells) and in experiment [2] (SU/SR cells) was “lost” in each case. For the same compound, the “MFI (mean fluorescent intensity) of surface c-kit” value in experiment [3] is 48.8. For the same compound, the “H&E staining of bone marrow” value in experiment [4] (NOG mice with SU/SR) is listed as “homogeneity was lost”. For the same compound, in experiment [4] (NOG mice with SU/SR), the “Invasion of liver by transplanted PhALL cells (hCD45 staining)” value is listed as “reduced”. In experiment [4] (NOG mice with SU/SR), the “Invasion of spleen by transplanted PhALL cells (hCD45 staining), compared with liver” value is “same results”. The “hCD45 staining of bone marrow (human leukemia cells)” value in experiment [4] (NOG mice with SU/SR) is “most of the brown parts lost”. In addition, in experiment [4] (NOG mice with SU/SR (Ph+), 320 μg/kg IV twice a week), the “Lengthening of overall survival periods” value is recorded as “about 1.8 times”. In addition, the Early apoptosis rates entry in experiment [5] is on record as “increased”. Also, the “Gene expression pattern vs cells with all RUNX family members knockdown” value in experiment [6] is listed as “significantly correlated”. The figures for the IC50 in experiment [7] (culture time 48 hours) and in experiment [7] (culture time 72 hours) were 1750 nM and 674 nM, respectively.

The values are drawn from patent publication US11235001B2, “RUNX inhibitor” (KYOTO UNIVERSITY, priority 2016, dated 2022).
